Results reported in ChEMBL document CHEMBL5335860, “Imidazole Bioisostere Activators of Endopeptidase Neurolysin with Enhanced Potency and Metabolic Stability” (ACS Med Chem Lett, 2024).
Active and inactive are the calls of the source. The rule behind the calls is not given here. Peptide text beside a SMILES is read from it. * marks the point of attachment. NHPhenethyl = c1ccc(CCN*)cc1

Tests used:
[1] = target: T1, Neurolysin, mitochondrial (Homo sapiens, UniProt Q9BYT8); assay: Activation of Nln (unknown origin) using Mca-Pro-Leu-Gly-Pro-D-Lys(DNP)- OH as substrate preincubated for 10 mins followed by substrate addition measured for 20 mins by fluorescence based assay
Target sequence in this assay (Q9BYT8 whole entry): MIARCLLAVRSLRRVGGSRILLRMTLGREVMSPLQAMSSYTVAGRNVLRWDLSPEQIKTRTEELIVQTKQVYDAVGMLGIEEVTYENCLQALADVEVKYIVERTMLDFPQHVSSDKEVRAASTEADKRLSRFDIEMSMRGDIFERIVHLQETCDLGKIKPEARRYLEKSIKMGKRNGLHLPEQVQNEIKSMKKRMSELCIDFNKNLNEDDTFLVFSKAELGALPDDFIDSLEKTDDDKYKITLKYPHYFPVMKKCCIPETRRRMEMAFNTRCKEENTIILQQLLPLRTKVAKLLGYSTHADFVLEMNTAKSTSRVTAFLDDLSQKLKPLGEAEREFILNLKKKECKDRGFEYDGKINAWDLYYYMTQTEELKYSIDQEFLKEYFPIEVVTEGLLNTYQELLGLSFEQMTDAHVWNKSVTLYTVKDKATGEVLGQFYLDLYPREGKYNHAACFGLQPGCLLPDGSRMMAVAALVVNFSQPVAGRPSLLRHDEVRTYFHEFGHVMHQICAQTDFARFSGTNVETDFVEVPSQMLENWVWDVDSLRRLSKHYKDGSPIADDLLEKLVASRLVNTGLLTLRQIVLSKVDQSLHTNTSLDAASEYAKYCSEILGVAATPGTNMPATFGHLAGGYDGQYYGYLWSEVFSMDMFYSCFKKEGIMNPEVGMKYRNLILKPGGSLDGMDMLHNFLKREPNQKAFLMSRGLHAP

[2] = target: T1, Neurolysin, mitochondrial; assay: Activation of Nln (unknown origin) using Mca-Pro-Leu-Gly-Pro-D-Lys(DNP)- OH as substrate preincubated for 10 mins followed by substrate addition measured for 20 mins by fluorescence based assay relative to control; conditions: filed as activator, time 30.0 min
Target sequence in this assay (Q9BYT8 38-704 limits assumed): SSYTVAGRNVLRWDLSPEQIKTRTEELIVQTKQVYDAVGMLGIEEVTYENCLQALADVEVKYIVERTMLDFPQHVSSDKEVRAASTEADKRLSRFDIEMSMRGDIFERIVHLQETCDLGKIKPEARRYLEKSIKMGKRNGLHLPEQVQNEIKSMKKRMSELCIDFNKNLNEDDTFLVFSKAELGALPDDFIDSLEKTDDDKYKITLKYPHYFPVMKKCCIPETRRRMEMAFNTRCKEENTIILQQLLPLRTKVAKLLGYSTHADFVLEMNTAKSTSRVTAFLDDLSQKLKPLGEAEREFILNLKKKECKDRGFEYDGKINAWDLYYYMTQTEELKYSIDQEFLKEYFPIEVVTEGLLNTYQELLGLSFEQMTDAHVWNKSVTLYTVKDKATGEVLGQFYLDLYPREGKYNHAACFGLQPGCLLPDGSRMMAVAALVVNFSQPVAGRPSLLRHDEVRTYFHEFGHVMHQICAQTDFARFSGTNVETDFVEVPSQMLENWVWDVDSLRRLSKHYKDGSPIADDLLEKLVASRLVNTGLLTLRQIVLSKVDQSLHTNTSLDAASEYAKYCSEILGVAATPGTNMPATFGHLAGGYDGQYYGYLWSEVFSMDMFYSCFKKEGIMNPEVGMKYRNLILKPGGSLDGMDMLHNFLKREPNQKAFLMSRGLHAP

[3] = Half life in mouse plasma at 500 ng/ml measured for 4 hrs by LC-MS/MS analysis; assay type: ADME, cell-free
[4] = Permeability coefficient in co-culture of primary mouse astrocytes and immortalized mouse endothelial cells at 10 ug/ml by BBB assay; assay type: ADME; conditions: dose 10 µg/ml, read-out: Kp (converted)
[5] = Half life in mouse brain at 500 ng/ml measured for 4 hrs by LC-MS/MS analysis; assay type: ADME, tissue-based
[6] = target: Thimet oligopeptidase (Homo sapiens) (UniProt P52888); assay: Inhibition of recombinant THOP1 (unknown origin) relative to control; conditions: concentration not given here
Sequence of Thimet oligopeptidase (Homo sapiens) (P52888 whole entry, the tested form may be a part): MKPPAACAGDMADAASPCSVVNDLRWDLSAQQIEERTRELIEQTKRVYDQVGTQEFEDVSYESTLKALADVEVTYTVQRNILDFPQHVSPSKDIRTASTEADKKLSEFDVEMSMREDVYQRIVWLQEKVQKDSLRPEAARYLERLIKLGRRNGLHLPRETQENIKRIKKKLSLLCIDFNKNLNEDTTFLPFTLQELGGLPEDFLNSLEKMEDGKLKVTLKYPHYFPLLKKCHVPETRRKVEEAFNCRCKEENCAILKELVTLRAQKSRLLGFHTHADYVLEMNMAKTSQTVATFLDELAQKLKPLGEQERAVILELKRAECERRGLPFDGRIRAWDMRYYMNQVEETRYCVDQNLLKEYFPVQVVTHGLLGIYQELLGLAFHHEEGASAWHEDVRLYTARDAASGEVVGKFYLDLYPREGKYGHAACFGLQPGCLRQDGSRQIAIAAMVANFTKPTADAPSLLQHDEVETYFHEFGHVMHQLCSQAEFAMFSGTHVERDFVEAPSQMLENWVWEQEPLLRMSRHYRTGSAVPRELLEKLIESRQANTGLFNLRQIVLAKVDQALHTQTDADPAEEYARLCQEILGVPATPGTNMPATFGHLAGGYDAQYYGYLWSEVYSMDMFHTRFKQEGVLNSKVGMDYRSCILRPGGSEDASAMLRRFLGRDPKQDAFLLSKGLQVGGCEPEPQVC

[7] = target: Angiotensin-converting enzyme (Homo sapiens) (UniProt P12821); assay: Inhibition of C-terminal 10-His-tagged recombinant human ACE (30 to 1261 residues) expressed in mouse myeloma cells relative to control; conditions: concentration not given here
Sequence of Angiotensin-converting enzyme (Homo sapiens) (P12821 whole entry, the tested form may be a part): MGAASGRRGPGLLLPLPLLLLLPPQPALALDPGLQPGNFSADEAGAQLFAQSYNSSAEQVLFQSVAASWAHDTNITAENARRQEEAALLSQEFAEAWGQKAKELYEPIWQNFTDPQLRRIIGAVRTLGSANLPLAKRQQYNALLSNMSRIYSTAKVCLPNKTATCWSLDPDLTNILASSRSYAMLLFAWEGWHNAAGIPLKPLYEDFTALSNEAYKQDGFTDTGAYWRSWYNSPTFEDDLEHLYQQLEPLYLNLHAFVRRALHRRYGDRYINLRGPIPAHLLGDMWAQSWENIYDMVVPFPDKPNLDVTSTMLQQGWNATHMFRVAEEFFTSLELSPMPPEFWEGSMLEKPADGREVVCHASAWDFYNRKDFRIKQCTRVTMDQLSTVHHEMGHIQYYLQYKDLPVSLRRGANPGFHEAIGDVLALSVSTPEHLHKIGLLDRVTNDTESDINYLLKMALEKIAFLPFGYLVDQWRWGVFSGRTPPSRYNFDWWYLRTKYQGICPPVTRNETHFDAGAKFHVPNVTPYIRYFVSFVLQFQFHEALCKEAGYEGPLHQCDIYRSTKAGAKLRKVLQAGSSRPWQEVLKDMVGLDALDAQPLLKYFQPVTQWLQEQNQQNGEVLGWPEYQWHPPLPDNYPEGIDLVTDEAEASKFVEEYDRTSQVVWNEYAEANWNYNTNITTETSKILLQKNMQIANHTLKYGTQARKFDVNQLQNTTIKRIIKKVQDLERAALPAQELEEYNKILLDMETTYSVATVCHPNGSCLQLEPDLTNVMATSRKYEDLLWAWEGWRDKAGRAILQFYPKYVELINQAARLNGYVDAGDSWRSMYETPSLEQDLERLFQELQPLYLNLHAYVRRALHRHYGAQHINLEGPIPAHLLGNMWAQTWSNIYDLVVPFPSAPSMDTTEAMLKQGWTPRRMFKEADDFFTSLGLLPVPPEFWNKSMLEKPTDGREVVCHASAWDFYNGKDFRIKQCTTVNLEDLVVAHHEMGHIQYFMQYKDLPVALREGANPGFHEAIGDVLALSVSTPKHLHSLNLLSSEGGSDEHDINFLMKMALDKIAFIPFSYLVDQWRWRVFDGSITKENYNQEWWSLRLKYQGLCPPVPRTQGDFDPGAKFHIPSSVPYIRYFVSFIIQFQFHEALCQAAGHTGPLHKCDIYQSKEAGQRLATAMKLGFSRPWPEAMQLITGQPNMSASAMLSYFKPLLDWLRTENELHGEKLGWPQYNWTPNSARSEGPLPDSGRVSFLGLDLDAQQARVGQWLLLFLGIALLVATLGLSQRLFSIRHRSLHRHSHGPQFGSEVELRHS

[8] = target: Angiotensin-converting enzyme 2 (Homo sapiens) (UniProt Q9BYF1); assay: Inhibition of C-terminal polyhis-tagged recombinant human ACE2 (1 to 740 residues) expressed in HEK293 cells relative to control; assay type: cell-based; conditions: concentration not given here
Sequence of Angiotensin-converting enzyme 2 (Homo sapiens) (Q9BYF1 18-805 limits assumed): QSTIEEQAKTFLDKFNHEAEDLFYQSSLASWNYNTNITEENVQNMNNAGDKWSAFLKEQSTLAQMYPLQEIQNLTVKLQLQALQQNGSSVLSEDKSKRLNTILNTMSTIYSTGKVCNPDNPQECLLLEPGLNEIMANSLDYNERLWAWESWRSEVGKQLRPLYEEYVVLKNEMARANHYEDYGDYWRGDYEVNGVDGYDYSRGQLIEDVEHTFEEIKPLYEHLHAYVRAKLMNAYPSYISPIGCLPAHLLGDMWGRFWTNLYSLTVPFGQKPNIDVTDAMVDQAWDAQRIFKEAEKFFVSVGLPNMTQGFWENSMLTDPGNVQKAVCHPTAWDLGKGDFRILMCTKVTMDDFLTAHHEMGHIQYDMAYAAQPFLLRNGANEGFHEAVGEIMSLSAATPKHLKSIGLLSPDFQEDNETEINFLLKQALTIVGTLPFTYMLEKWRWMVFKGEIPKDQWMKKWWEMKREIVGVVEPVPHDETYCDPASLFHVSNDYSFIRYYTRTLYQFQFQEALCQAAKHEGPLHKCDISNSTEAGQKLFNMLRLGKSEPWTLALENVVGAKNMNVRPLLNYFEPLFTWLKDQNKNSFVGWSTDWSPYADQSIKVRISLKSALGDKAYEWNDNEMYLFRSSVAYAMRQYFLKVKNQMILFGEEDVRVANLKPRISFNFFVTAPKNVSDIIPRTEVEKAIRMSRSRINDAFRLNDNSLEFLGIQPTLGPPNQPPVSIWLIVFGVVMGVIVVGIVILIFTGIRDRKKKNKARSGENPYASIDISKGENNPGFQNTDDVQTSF

[9] = target: Neprilysin (Homo sapiens) (UniProt P08473); assay: Inhibition of N-terminal polyhis-tagged recombinant human neprilysin (52 to 750 residues) expressed in HEK293 cells relative to control; assay type: cell-based; conditions: concentration not given here
Sequence of Neprilysin (Homo sapiens) (P08473 whole entry, the tested form may be a part): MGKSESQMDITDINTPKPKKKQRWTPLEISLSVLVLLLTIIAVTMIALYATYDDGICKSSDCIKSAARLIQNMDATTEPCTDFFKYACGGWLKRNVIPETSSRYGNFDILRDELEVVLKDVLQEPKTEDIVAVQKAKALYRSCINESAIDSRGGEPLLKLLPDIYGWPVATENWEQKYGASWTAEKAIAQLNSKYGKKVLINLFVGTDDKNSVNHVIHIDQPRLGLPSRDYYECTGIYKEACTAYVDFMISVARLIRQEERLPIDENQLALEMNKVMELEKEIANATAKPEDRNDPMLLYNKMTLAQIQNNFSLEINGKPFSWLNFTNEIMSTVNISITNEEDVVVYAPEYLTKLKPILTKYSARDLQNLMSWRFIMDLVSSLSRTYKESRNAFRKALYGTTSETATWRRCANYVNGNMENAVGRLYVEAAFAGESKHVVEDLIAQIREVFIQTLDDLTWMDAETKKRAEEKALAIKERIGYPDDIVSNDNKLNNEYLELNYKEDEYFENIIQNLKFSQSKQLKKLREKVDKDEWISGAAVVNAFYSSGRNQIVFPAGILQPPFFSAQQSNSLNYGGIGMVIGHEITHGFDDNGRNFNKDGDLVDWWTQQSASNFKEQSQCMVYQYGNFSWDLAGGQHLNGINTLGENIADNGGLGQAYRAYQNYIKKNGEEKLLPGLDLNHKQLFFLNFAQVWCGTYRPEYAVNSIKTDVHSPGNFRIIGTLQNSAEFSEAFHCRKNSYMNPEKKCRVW

[10] = Drug concentration in brain of MCAO mouse model at 4 mg/kg, iv measured after 30 mins; assay type: ADME, organism-based; conditions: read-out: Ct
[11] = Elimination half life in MCAO mouse model at 4 mg/kg, iv; assay type: ADME, organism-based; conditions: in vivo, read-out: beta t1/2
[12] = target: Thimet oligopeptidase (Homo sapiens) (UniProt P52888); assay: Inhibition of recombinant THOP1 (unknown origin)
[13] = target: Angiotensin-converting enzyme (Homo sapiens) (UniProt P12821); assay: Inhibition of C-terminal 10-His-tagged recombinant human ACE (30 to 1261 residues) expressed in mouse myeloma cells; conditions: Multiple myeloma cell
[14] = target: Angiotensin-converting enzyme 2 (Homo sapiens) (UniProt Q9BYF1); assay: Inhibition of C-terminal polyhis-tagged recombinant human ACE2 (1 to 740 residues) expressed in HEK293 cells; assay type: cell-based
[15] = target: Neprilysin (Homo sapiens) (UniProt P08473); assay: Inhibition of N-terminal polyhis-tagged recombinant human neprilysin (52 to 750 residues) expressed in HEK293 cells; assay type: cell-based

Row | EC50 ([1]; read-out: EC50) [µM] | Emax [2] [%] | SMILES | further results
1 | 5.4 | 178 | N[C@@H](Cc1c[nH]cn1)C(=O)N[C@@H](Cc1ccccc1)C(=O)NCCc1ccccc1 (H-His-Phe-NHPhenethyl) | –
2 | 252 | 467 | N[C@@H](Cc1c[nH]cn1)C(=O)Nc1ccccc1 | –
3 | 3.6 | 324 | CN(Cc1cccc2ccccc12)C(=O)[C@H](N)Cc1c[nH]cn1 | –
4 | 85.5 | – | N[C@@H](Cc1c[nH]cn1)C(=O)N[C@@H](Cc1ccccc1)C(=O)O (H-His-Phe-OH) | half-life at 500 ng/ml [3]: 0.57 h; Papp at 10 ug/ml [4]: 1.17 ×10⁻⁶ cm/s
5 | 4.1 | 244 | N[C@@H](Cc1c[nH]cn1)c1ncc(-c2cccc3ccccc23)[nH]1 | half-life at 500 ng/ml [3]: > 16.7 h; Papp at 10 ug/ml [4]: 13.8 ×10⁻⁶ cm/s; half-life at 500 ng/ml [5]: 1.77 h; inhibition [6]: 20%; inhibition [7]: 20%; inhibition [8]: 20%; inhibition [9]: 20%
6 | 4.3 | 237 | N[C@@H](Cc1c[nH]cn1)C(=O)N1CCC(Cc2ccccc2F)CC1 | –
7 | 4.4 | 211 | N[C@@H](Cc1c[nH]cn1)C(=O)NCc1ccc2ccccc2c1 | –
8 | 3.4 | 279 | N[C@@H](Cc1c[nH]cn1)C(=S)NCc1cccc2ccccc12 | –
9 | 3.8 | 345 | CN(Cc1cccc2ccccc12)C(=O)[C@@H](N)Cc1c[nH]cn1 | –
10 | 5.2 | 307 | N[C@@H](Cc1c[nH]cn1)C(=O)N(CCc1c[nH]c2ccccc12)Cc1ccccc1 | –
11 | 5.4 | 272 | N[C@H](Cc1c[nH]cn1)C(=O)N1CCC(Cc2ccccc2F)CC1 | –

Continued, compound first:

Row | SMILES | EC50 ([1]; read-out: EC50) [µM] | Emax [2] [%] | further results
12 | N[C@@H](Cc1c[nH]cn1)c1ncc(-c2ccc(Cl)cc2)[nH]1 | 2.9 | 318 | –
13 | N[C@@H](Cc1c[nH]cn1)C(=O)NCCc1ccc(F)cc1 | 11.6 | – | –
14 | N[C@@H](Cc1c[nH]cn1)C(=O)Nc1cccc2cccnc12 | 7 | – | Papp at 10 ug/ml [4]: 19 ×10⁻⁶ cm/s; concentration at 0.5 h [10]: 260 nM; half-life [11]: 0.5 h
15 | N[C@@H](Cc1c[nH]cn1)C(=O)NCc1cccc2ccccc12 | – | 264 | half-life at 500 ng/ml [3]: > 16.7 h; Papp at 10 ug/ml [4]: 18.3 ×10⁻⁶ cm/s; half-life at 500 ng/ml [5]: 1.34 h
16 | N[C@H](Cc1c[nH]cn1)c1ncc(-c2ccc3ccccc3c2)[nH]1 | 6.8 | 138 | –
17 | N[C@@H](Cc1c[nH]cn1)C(=O)NCC(=O)c1ccc2ccccc2c1 | – | – | EC50 [1]: Not Active
18 | CC(C)[C@H](NC(=O)[C@@H](N)Cc1c[nH]cn1)C(=O)NCc1cccc2ccccc12 | – | – | EC50 [1]: Not Active
19 | N[C@@H](Cc1c[nH]cn1)C(=O)NCC(=O)c1ccc(Cl)cc1 | 33.7 | 130 | –
20 | N[C@@H](Cc1c[nH]cn1)C(=O)N1CCc2ccccc2C1 | 32.6 | 380 | –
21 | N[C@H](Cc1c[nH]cn1)c1ncc(-c2ccc(Cl)cc2)[nH]1 | 2 | 282 | half-life at 500 ng/ml [3]: 8.15 h; Papp at 10 ug/ml [4]: 6 ×10⁻⁶ cm/s; half-life at 500 ng/ml [5]: 1.81 h; inhibition [12]: inactive; inhibition [13]: inactive; inhibition [14]: inactive; inhibition [15]: inactive
22 | N[C@@H](Cc1c[nH]cn1)C(=O)N[C@@H](Cc1ccccc1)C(=O)NCc1cccc2ccccc12 | – | – | EC50 [1]: Not Active
23 | N[C@@H](Cc1c[nH]cn1)c1ncc(-c2ccc3ccccc3c2)[nH]1 | 5.5 | 268 | –
24 | N[C@@H](Cc1c[nH]cn1)C(=O)NCCc1ccc(Cl)cc1 | 25 | 404 | –
